± gives the uncertainty stated by the source.
Test: xn = mol fraction of the nth substance listed

CCCC[n+]1ccn(C)c1.F[B-](F)(F)F + CCCC[n+]1ccn(C)c1.F[P-](F)(F)(F)(F)F
101 kPa, x2 = 0
Details	viscosity [mPa·s]
299.15 K	101.9 ± 2.7
301.15 K	92 ± 2.2
303.15 K	83.4 ± 1.8

Nc1ccccc1 + CCCC[n+]1ccn(C)c1.O=S(=O)([N-]S(=O)(=O)C(F)(F)F)C(F)(F)F
viscosity [mPa·s], 100 kPa
Details	288.15 K	293.15 K	298.15 K	303.15 K	308.15 K	313.15 K	318.15 K	323.15 K	328.15 K	333.15 K
x1 = 0.1	66.3 ± 2.9	52.2 ± 2.3	42.1 ± 1.9	34.3 ± 1.5	28.6 ± 1.3	23.9 ± 1.1	20.44 ± 0.91	17.56 ± 0.78	15.22 ± 0.68	13.34 ± 0.59
x1 = 0.2	55.9 ± 2.5	44.1 ± 2	35.9 ± 1.6	29.3 ± 1.3	24.5 ± 1.1	20.59 ± 0.91	17.66 ± 0.78	15.22 ± 0.67	13.24 ± 0.59	11.63 ± 0.52
x1 = 0.3029	46.5 ± 2.1	36.8 ± 1.6	30.1 ± 1.3	24.7 ± 1.1	20.77 ± 0.92	17.48 ± 0.77	15.05 ± 0.67	13.02 ± 0.58	11.36 ± 0.5	10.01 ± 0.44
x1 = 0.4013	38.5 ± 1.7	30.6 ± 1.4	25.1 ± 1.1	20.73 ± 0.92	17.48 ± 0.77	14.76 ± 0.65	12.76 ± 0.57	11.06 ± 0.49	9.68 ± 0.43	8.56 ± 0.38
x1 = 0.5024	31.1 ± 1.4	24.8 ± 1.1	20.42 ± 0.9	16.98 ± 0.75	14.38 ± 0.64	12.17 ± 0.54	10.57 ± 0.47	9.19 ± 0.41	8.08 ± 0.36	7.16 ± 0.32
x1 = 0.6002	24.6 ± 1.1	19.71 ± 0.87	16.28 ± 0.72	13.64 ± 0.6	11.58 ± 0.51	9.84 ± 0.44	8.59 ± 0.38	7.5 ± 0.33	6.61 ± 0.29	5.88 ± 0.26
x1 = 0.7	18.38 ± 0.81	14.86 ± 0.66	12.4 ± 0.55	10.47 ± 0.46	8.92 ± 0.4	7.61 ± 0.34	6.68 ± 0.3	5.86 ± 0.26	5.19 ± 0.23	4.64 ± 0.2
x1 = 0.8002	13.46 ± 0.6	10.93 ± 0.48	9.22 ± 0.41	7.8 ± 0.34	6.71 ± 0.3	5.77 ± 0.26	5.09 ± 0.22	4.5 ± 0.2	4 ± 0.18	3.59 ± 0.16
x1 = 0.9	8.74 ± 0.39	7.19 ± 0.32	6.1 ± 0.27	5.2 ± 0.23	4.5 ± 0.2	3.9 ± 0.17	3.46 ± 0.15	3.08 ± 0.14	2.76 ± 0.12	2.48 ± 0.11
x1 = 1	5.32 ± 0.23	4.41 ± 0.19	3.74 ± 0.16	3.2 ± 0.14	2.78 ± 0.12	2.45 ± 0.11	2.159 ± 0.096	1.927 ± 0.085	1.738 ± 0.077	1.577 ± 0.07
